Values joined by “and” are separate entries in the source; they are usually repeats but may differ in a detail not shown here. Equal values may be shown once.
Biological target: T1, PfMDH (Plasmodium falciparum, UniProt Q6VVP7)
T1 construct: The full-length WT PfMDH gene was cloned into pETM-13; made in house; host or cells: E. coli Rosetta 2 (DE3) pLysS
Test: Thermal shift assay (TSA)
Assay type: binding
Conditions: for TSA melting curve raw signal: triplicate columns; for TSA melting curve raw fluorescence signal: three replicate columns
Outline: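 10 μM PfMDH with 1 mM compound in 100 mM Na–phosphate pH 7.4, 400 mM NaCl, 10× Sypro Orange; 1% DMSO controls. Melting inflection points taken as Tm; shifts >1 °C read as stabilization, negative shifts as destabilization.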

T1 sequence (Q6VVP7 entry or part of it): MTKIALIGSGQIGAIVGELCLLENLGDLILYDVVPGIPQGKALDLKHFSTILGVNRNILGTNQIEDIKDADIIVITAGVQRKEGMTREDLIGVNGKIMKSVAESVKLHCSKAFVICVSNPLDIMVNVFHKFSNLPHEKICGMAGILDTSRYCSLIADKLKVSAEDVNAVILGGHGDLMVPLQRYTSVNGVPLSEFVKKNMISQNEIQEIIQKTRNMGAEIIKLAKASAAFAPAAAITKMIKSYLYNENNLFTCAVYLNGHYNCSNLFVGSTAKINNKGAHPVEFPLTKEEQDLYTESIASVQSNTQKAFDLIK

SMILES: Nc1nc(-c2ccccc2)cs1 [4PA, 4-phenylthiazol-2-amine]
- ΔTm at 1000 µM (1 mM compound vs DMSO control): -3 °C
- Tm (1 mM compound, 10 μM PfMDH, DMSO control Tm 58): 55.0 ± 0.2 °C
- TSA melting curve raw signal (Temperature 25): 3101.562 and 3333.877 and 3419.875
- TSA melting curve raw signal (Temperature 28.5): 2982.864 and 3197.483 and 3331.476
- TSA melting curve raw signal (Temperature 29): 2965.133 and 3176.088 and 3316.215
- TSA melting curve raw signal (Temperature 29.5): 2946.457 and 3153.433 and 3298.876
- TSA melting curve raw signal (Temperature 30): 2926.726 and 3129.047 and 3278.959
- TSA melting curve raw signal (Temperature 30.5): 2906.089 and 3103.354 and 3257.233
- TSA melting curve raw signal (Temperature 31): 2885.408 and 3077.356 and 3234.634
- TSA melting curve raw signal (Temperature 31.5): 2865.452 and 3051.863 and 3212.437
- TSA melting curve raw signal (Temperature 32): 2847.461 and 3027.963 and 3192.183
- TSA melting curve raw signal (Temperature 32.5): 2831.845 and 3007.388 and 3175.246
- TSA melting curve raw signal (Temperature 33): 2819.491 and 2990.613 and 3162.466
- TSA melting curve raw signal (Temperature 33.5): 2810.837 and 2978.017 and 3154.456
- TSA melting curve raw signal (Temperature 34): 2806.172 and 2970.163 and 3151.8
- TSA melting curve raw signal (Temperature 34.5): 2805.279 and 2966.904 and 3154.834
- TSA melting curve raw signal (Temperature 35): 2808.767 and 2967.899 and 3163.624
- TSA melting curve raw signal (Temperature 35.5): 2816.443 and 2973.639 and 3178.538
- TSA melting curve raw signal (Temperature 36): 2828.317 and 2984.069 and 3199.383
- TSA melting curve raw signal (Temperature 36.5): 2844.427 and 2998.946 and 3225.589
- TSA melting curve raw signal (Temperature 37): 2864.693 and 3018.271 and 3256.517
- TSA melting curve raw signal (Temperature 37.5): 2888.742 and 3042.246 and 3291.976
- TSA melting curve raw signal (Temperature 38): 2916.555 and 3070.379 and 3330.731
- TSA melting curve raw signal (Temperature 38.5): 2948.507 and 3102.617 and 3372.906
- TSA melting curve raw signal (Temperature 39): 2984.548 and 3139.232 and 3418.523
- TSA melting curve raw signal (Temperature 39.5): 3025.238 and 3180.62 and 3468.123
- TSA melting curve raw signal (Temperature 40): 3070.846 and 3226.341 and 3521.558
- TSA melting curve raw signal (Temperature 40.5): 3121.424 and 3276.836 and 3579.878
- TSA melting curve raw signal (Temperature 41): 3176.735 and 3332.701 and 3643.235
- TSA melting curve raw signal (Temperature 41.5): 3236.92 and 3394.066 and 3712.066
- TSA melting curve raw signal (Temperature 42): 3301.878 and 3461.348 and 3786.574
- TSA melting curve raw signal (Temperature 42.5): 3371.782 and 3535.427 and 3867.61
- TSA melting curve raw signal (Temperature 43): 3446.967 and 3616.442 and 3955.318
- TSA melting curve raw signal (Temperature 43.5): 3527.686 and 3704.688 and 4050.074
- TSA melting curve raw signal (Temperature 44): 3614.17 and 3800.745 and 4152.165
- TSA melting curve raw signal (Temperature 44.5): 3706.596
- TSA melting curve raw fluorescence signal (Temperature 73.5): 6991.444 and 7655.524 and 7881.758
- TSA melting curve raw fluorescence signal (Temperature 74): 6939.612 and 7600.258 and 7826.265
- TSA melting curve raw fluorescence signal (Temperature 74.5): 6888.076 and 7546.666 and 7771.787
- TSA melting curve raw fluorescence signal (Temperature 75): 6836.407 and 7493.684 and 7717.224
- TSA melting curve raw fluorescence signal (Temperature 75.5): 6784.183 and 7441.52 and 7662.752
- TSA melting curve raw fluorescence signal (Temperature 76): 6731.402 and 7389.749 and 7608.451
- TSA melting curve raw fluorescence signal (Temperature 76.5): 6679.444 and 7337.884 and 7553.49
- TSA melting curve raw fluorescence signal (Temperature 77): 6628.226 and 7285.068 and 7497.822
- TSA melting curve raw fluorescence signal (Temperature 77.5): 6578.245 and 7231.451 and 7441.978
- TSA melting curve raw fluorescence signal (Temperature 78): 6529.803 and 7176.607 and 7385.969
- TSA melting curve raw fluorescence signal (Temperature 78.5): 6482.748 and 7121.157 and 7329.423
- TSA melting curve raw fluorescence signal (Temperature 79): 6436.76 and 7065.937 and 7274.048
- TSA melting curve raw fluorescence signal (Temperature 79.5): 6391.899 and 7012.239 and 7219.892
- TSA melting curve raw fluorescence signal (Temperature 80): 6347.542 and 6960.087 and 7166.546
- TSA melting curve raw fluorescence signal (Temperature 80.5): 6302.907 and 6909.426 and 7113.859
- TSA melting curve raw fluorescence signal (Temperature 81): 6257.989 and 6859.788 and 7062.389
- TSA melting curve raw fluorescence signal (Temperature 81.5): 6211.993 and 6810.814 and 7010.574
- TSA melting curve raw fluorescence signal (Temperature 82): 6164.6 and 6762.251 and 6958.299
- TSA melting curve raw fluorescence signal (Temperature 82.5): 6116.092 and 6712.951 and 6905.437
- TSA melting curve raw fluorescence signal (Temperature 83): 6067.721 and 6663.14 and 6852.004
- TSA melting curve raw fluorescence signal (Temperature 83.5): 6019.674 and 6612.874 and 6798.049
- TSA melting curve raw fluorescence signal (Temperature 84): 5972.405 and 6562.27 and 6744.245
- TSA melting curve raw fluorescence signal (Temperature 84.5): 5926.625 and 6510.347 and 6690.517
- TSA melting curve raw fluorescence signal (Temperature 85): 5882.391 and 6459.307 and 6637.567
- TSA melting curve raw fluorescence signal (Temperature 85.5): 5838.459 and 6409.022 and 6584.837
- TSA melting curve raw fluorescence signal (Temperature 86): 5794.143 and 6359.5 and 6531.78
- TSA melting curve raw fluorescence signal (Temperature 86.5): 5749.377 and 6310.687 and 6478.281
- TSA melting curve raw fluorescence signal (Temperature 87): 5703.739 and 6263.164 and 6424.447
- TSA melting curve raw fluorescence signal (Temperature 87.5): 5656.691 and 6215.001 and 6369.065
- TSA melting curve raw fluorescence signal (Temperature 88): 5609.372 and 6165.882 and 6313.087
- TSA melting curve raw fluorescence signal (Temperature 88.5): 5562.587 and 6115.522 and 6256.819
- TSA melting curve raw fluorescence signal (Temperature 89): 5515.924 and 6063.705 and 6199.979
- TSA melting curve raw fluorescence signal (Temperature 89.5): 5468.97 and 6010.228 and 6142.345
- TSA melting curve raw fluorescence signal (Temperature 90): 5422.458

— PMC8355244, “A fragment-based approach identifies an allosteric pocket that impacts malate dehydrogenase activity” (Communications Biology, 2021)
